Laboratory results: ChEMBL document CHEMBL3588855, “Different structures of the two peroxisome proliferator-activated receptor gamma (PPARγ) ligand-binding domains in homodimeric complex with partial agonist, but not full agonist” (Bioorg Med Chem Lett, 2015)

Legend:
[1] = molecular target: T1, Peroxisome proliferator-activated receptor gamma (Homo sapiens) (UniProt P37231); test: Agonist activity at human GAL4-tagged-PPARgamma transfected in monkey COS1 cells by transient transfection/luciferase reporter gene assay relative to 30 uM pioglitazone; type: cell-based; conditions: COS-1
T1 sequence (whole entry): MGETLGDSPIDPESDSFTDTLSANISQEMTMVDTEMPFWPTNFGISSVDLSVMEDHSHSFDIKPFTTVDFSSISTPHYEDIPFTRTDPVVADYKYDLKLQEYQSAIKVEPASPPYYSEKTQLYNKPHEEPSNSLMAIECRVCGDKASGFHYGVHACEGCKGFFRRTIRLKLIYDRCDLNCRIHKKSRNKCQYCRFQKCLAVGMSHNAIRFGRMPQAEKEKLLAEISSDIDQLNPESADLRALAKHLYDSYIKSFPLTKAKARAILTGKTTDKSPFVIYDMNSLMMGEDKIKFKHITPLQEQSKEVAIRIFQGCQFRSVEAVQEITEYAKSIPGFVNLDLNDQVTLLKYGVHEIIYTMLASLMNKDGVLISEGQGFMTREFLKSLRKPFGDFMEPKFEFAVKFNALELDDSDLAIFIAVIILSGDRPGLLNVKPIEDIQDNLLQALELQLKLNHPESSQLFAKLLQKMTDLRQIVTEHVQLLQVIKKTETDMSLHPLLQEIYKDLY

[2] = molecular target: T1, Peroxisome proliferator-activated receptor gamma (Homo sapiens); test: Agonist activity at human GAL4-tagged-PPARgamma transfected in monkey COS1 cells by transient transfection/luciferase reporter gene assay relative to 10 uM rosiglitazone; type: cell-based; conditions: COS-1

CCCOc1ccc(C(=O)NS(=O)(=O)c2ccccc2)cc1CNC(=O)c1ccc(-c2ncccn2)cc1
%max [1]: 50% | %max [2]: 50%
